Publication PMC8041284, “Tunable Methacrylamides for Covalent Ligand Directed Release Chemistry” (Journal of the American Chemical Society, 2021)

Biological target: BTK (Homo sapiens, UniProt Q06187)
Assay: biochemical
Conditions: read-out: BTK inhibition (%), 0.75 uM BTK, […] probe 3l, 15 min preincubation

Sequence of BTK (Q06187 402-655 limits assumed): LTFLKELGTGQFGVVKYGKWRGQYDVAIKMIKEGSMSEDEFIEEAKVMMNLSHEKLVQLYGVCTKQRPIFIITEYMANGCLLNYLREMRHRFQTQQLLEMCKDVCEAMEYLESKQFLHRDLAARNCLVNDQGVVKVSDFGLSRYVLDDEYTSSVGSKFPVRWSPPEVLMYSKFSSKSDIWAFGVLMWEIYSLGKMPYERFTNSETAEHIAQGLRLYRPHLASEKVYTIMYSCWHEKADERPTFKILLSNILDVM

Row | Structure (SMILES) | inhibition at 10 µM [%]
1 | O=S(=O)(NCCSSCCNS(=O)(=O)c1cc(Cl)ccc1Cl)c1cc(Cl)ccc1Cl [PCM-0215542] | 5.4
2 | O=C(Nc1cc(C(F)(F)F)cc(C(F)(F)F)c1)c1cc(Cl)ccc1O [PCM-0095509] | 42.8
3 | OB1OCc2cc(F)ccc21 [PCM-0101990] | -10
4 | c1ccc2occc2c1 [PCM-0216211] | 6.2
5 | COc1ccc2cc1Oc1ccc(cc1)C[C@H]1c3cc(c(OC)cc3CCN1C)Oc1c(O)c(OC)cc3c1[C@@H](C2)N(C)CC3 [PCM-0214869] | 0.8
6 | Cn1c(=O)c2[nH]cnc2n(C)c1=O [PCM-0064445] | -24.9
7 | C[C@H]1C[C@H]2[C@@H]3C[C@H](F)C4=CC(=O)C=C[C@]4(C)[C@@]3(F)[C@@H](O)C[C@]2(C)[C@@]1(O)C(=O)CO [PCM-0216237] | 9
8 | CCN1CCN(c2cc3c(cc2F)c(=O)c(C(=O)O)cn3C2CC2)CC1 [PCM-0090392] | -11.9
9 | CC(O)[C@H](C)[C@H](N)C(=O)O (some centres unmarked) [PCM-0216361] | -2.6
10 | COc1ccc(-c2ccc3c(N4CCOCC4)nc(N4C[C@@H](C)O[C@@H](C)C4)nc3n2)cc1CO [PCM-0094955] | -12.4
11 | CN(C)C(=O)C(CCN1CCC(O)(c2ccc(Cl)cc2)CC1)(c1ccccc1)c1ccccc1 [PCM-0065584] | 18.7
12 | C/C=C/c1ccc(OC)cc1 [PCM-0090331] | 18.7
13 | O=C(NOCCO)c1ccc2cncn2c1Nc1ccc(I)cc1F [PCM-0215498] | 28.3
14 | CCCOC(=O)c1cc(O)c(O)c(O)c1 [PCM-0215973] | 11.6
15 | Cc1cc(O)cc(O[C@@H]2O[C@H](CO)[C@@H](O)[C@H](O)[C@H]2O)c1 [PCM-0214958] | -10.1
16 | C#C[C@]1(O)CC[C@H]2[C@@H]3CCC4=CC(=O)CC[C@@H]4[C@H]3C(=C)C[C@@]21CC [PCM-0214842] | 3.1
17 | CC(C)=CCC[C@](C)(O)[C@H]1CC[C@]2(C)[C@@H]1[C@H](O)C[C@@H]1[C@@]3(C)CC[C@H](O)C(C)(C)[C@@H]3[C@@H](O)C[C@]12C [PCM-0214875] | 17.9
18 | CC(C)Oc1ccc(-c2nc(-c3cccc4c3CC[C@@H]4NCCO)no2)cc1C#N [PCM-0215588] | -5.5
19 | COc1cccc(/C=N/N(C(=O)C(F)(F)F)c2ccc(C)cc2C)c1 [PCM-0216073] | 13.9
20 | CCc1nc(C(N)=O)c(Nc2ccc(N3CCC(N4CCN(C)CC4)CC3)c(OC)c2)nc1NC1CCOCC1 [PCM-0215866] | 73.8
21 | CN(C)c1ccc2nc3ccc(=[N+](C)C)cc-3sc2c1 [PCM-0090465] | 42.8
22 | CCn1c(-c2nonc2N)nc2c(C#CC(C)(C)O)ncc(OC[C@H]3CCCNC3)c21 [PCM-0094908] | -4.1
23 | CN1CCN(C(=O)/C=C/c2ccc([N+](=O)[O-])o2)CC1 [PCM-0215590] | 4.6
24 | C=C1CCC[C@]2(C)C[C@]3(O)OC(=O)C(C)=C3C[C@@H]12 [PCM-0216544] | 6.9
25 | COc1cc(O)c(CC=C(C)C)c2c1C(=O)CC(c1ccc(O)cc1)O2 (centres unmarked) [PCM-0216367] | 8.5
26 | CC(=O)O[C@@]12CO[C@@H]1C[C@H](O)[C@@]1(C)C(=O)[C@H](O)C3=C(C)[C@@H](O)C[C@@](O)([C@@H](OC(=O)c4ccccc4)[C@H]21)C3(C)C [PCM-0095302] | 9.3

Row | Structure (SMILES) | inhibition at 10 µM [%]
27 | C=C[C@@H]1CNC(=S)O1 [PCM-0216374] | -6.2
28 | C=CC/C(=N\OS(=O)(=O)O)S[C@@H]1O[C@H](CO)[C@@H](O)[C@H](O)[C@H]1O [PCM-0216356] | 3.9
29 | Oc1cc2c(cc1O)[C@@H]1c3ccc(O)c(O)c3OC[C@]1(O)C2 [PCM-0094861] | -15.6
30 | C[C@@H]1O[C@@H](O[C@@H]2[C@@H](O)[C@H](OCCc3ccc(O)c(O)c3)O[C@H](CO)[C@H]2OC(=O)/C=C/c2ccc(O)c(O)c2)[C@H](O)[C@H](O)[C@H]1O [PCM-0216174] | 15.9
31 | CC(=O)OC(C)(C)CCC(=O)[C@](C)(O)[C@H]1[C@H](O)C[C@@]2(C)[C@@H]3CC=C4[C@@H](C[C@H](O)[C@@H](O)C4(C)C)[C@]3(C)C(=O)C[C@]12C [PCM-0214543] | -13.8
32 | Cc1nc(C#Cc2ccnc(Cl)c2)c(C)n1-c1ccc(OC(F)(F)F)cc1 [PCM-0095504] | -55.3
33 | C[C@@H]1CC[C@@]2(OC1)O[C@H]1C[C@H]3[C@@H]4CC=C5C[C@@H](O[C@@H]6O[C@H](CO)[C@@H](O)[C@H](O)[C@H]6O[C@@H]6O[C@@H](C)[C@H](O)[C@@H](O)[C@H]6O)CC[C@]5(C)[C@H]4CC[C@]3(C)[C@@]1(O)[C@@H]2C [PCM-0216535] | 5.4
34 | CCCC(=O)Nc1ccc(OCC(O)CNC(C)C)c(C(C)=O)c1 (centres unmarked) [PCM-0085895] | -12.5
35 | CNC[C@H](O)c1cccc(O)c1 [PCM-0064848] | -20.2
36 | CCN(CC)CCCC(C)Nc1c2ccc(Cl)cc2nc2ccc(OC)cc12 (centres unmarked) [PCM-0065371] | -8.5
37 | COCCOc1cnc2ccn([C@H](C)c3nnc4c(F)cc(-c5cnn(C)c5)cn34)c(=O)c2c1 [PCM-0215653] | 15.9
38 | COC(=O)C1=CO[C@@H](O[C@@H]2O[C@H](CO)[C@@H](O)[C@H](O)[C@H]2O)[C@@H]2C(CO)=CC[C@H]12 [PCM-0087450] | -1.6
39 | CC(C)(F)C[C@H](N[C@@H](c1ccc(-c2ccc(S(C)(=O)=O)cc2)cc1)C(F)(F)F)C(=O)NC1(C#N)CC1 [PCM-0094912] | -23.3
40 | C[C@@H](Nc1nc(N[C@H](C)C(F)(F)F)nc(-c2cccc(Cl)n2)n1)C(F)(F)F [PCM-0215864] | -3.9
41 | CCNc1nc(Nc2cc(F)c(C(=O)N3CCOCC3)cc2OC)ncc1C(F)(F)F [PCM-0215337] | -9
42 | Cc1cc(=O)oc2cc(O)ccc12 [PCM-0011565] | -2.3
43 | CC(C)(C)C(=O)N1N=CC[C@H]1c1ccccc1 [PCM-0216112] | 13.8
44 | Cc1sc2c(c1C)C(c1ccc(Cl)cc1)=N[C@@H](CC(N)=O)c1nnc(C)n1-2 [PCM-0215329] | -14.7
45 | CN1[C@@H]2CC[C@H]1CC(OC(c1ccccc1)c1ccccc1)C2 (some centres unmarked) [PCM-0086292] | -3.1
46 | Cn1c([N+](=O)[O-])cnc1COC(N)=O [PCM-0086329] | -12.5
47 | CCCCCC1C(=O)CCC1CC(=O)OCCC (centres unmarked) [PCM-0216258] | -0.8
48 | O=C(/C=C\n1cnc(-c2cc(C(F)(F)F)cc(C(F)(F)F)c2)n1)NNc1cnccn1 [PCM-0095752] | 6.9
49 | O=C(O)CCCNC(=O)c1cccnc1 [PCM-0216143] | -17
50 | CCCCC1OC(=O)c2ccccc21 (centres unmarked) [PCM-0216506] | 6.9
51 | COc1ccc(S(=O)(=O)Nc2nc(-c3cccc([N+](=O)[O-])c3)cs2)cc1OC [PCM-0215595] | 7.7
52 | CCOC(=O)O[C@]1(C(=O)OCCl)CC[C@H]2[C@@H]3CCC4=CC(=O)C=C[C@]4(C)[C@H]3[C@@H](O)C[C@@]21C [PCM-0095115] | 13.8

Now from value to compound:

Row | inhibition at 10 µM [%] | Structure (SMILES)
53 | 106 | O=C(NC(NC(=S)Nc1ccc(F)c([N+](=O)[O-])c1)C(Cl)(Cl)Cl)C(c1ccccc1)c1ccccc1 (centres unmarked) [PCM-0215199]
54 | 19.3 | CN(C)CCCNC(=O)c1ccc(-c2cc(O)c3ncccc3c2)cc1 [PCM-0215418]
55 | 20.8 | O=C1C(=Cc2cccnc2)C(=O)c2ccccc21 [PCM-0216080]
56 | 12.4 | NC(=O)c1ccc(-c2nc(-c3ccc4c(c3)OCO4)c(-c3ccccn3)[nH]2)cc1 [PCM-0095013]
57 | 80.9 | COC(=O)C1=C(C)NC(C)=C(C(=O)O[C@@H]2CCCN(Cc3ccccc3)C2)[C@@H]1c1cccc([N+](=O)[O-])c1 [PCM-0214706]
58 | 117 | CN(C)C/C=C/C(=O)Nc1ccc(C(=O)Nc2cccc(Nc3ncc(Cl)c(-c4c[nH]c5ccccc45)n3)c2)cc1 [PCM-0213464]
59 | 0.7 | COc1ccnc2[nH]cc(C(=O)C(=O)N3CCN(C(=O)c4ccccc4)C[C@H]3C)c12 [PCM-0095512]
60 | 56.8 | COc1cc(NC(=O)c2ccc(-c3ccc(Cl)cc3)o2)cc(OC)c1 [PCM-0095366]
61 | 103 | CC#CC(=O)Nc1ccc2ncnc(Nc3cccc(Br)c3)c2c1 [PCM-0215449]
62 | -11 | CCCNC(=O)Nc1ccc(Oc2ncnc3cc(OC)c(OC)cc23)cc1Cl [PCM-0095113]
63 | 3.4 | COc1nc(C)cnc1NS(=O)(=O)c1cccnc1-c1ccc(-c2nnco2)cc1 [PCM-0095131]
64 | 16.3 | O=C1C(=O)c2ccccc2C(O)=C1C1CCC(c2ccc(Cl)cc2)CC1 (centres unmarked) [PCM-0214729]
65 | -17 | COc1cc2c(N3CCN(C(=O)Nc4ccc(OC(C)C)cc4)CC3)ncnc2cc1OCCCN1CCCCC1 [PCM-0090254]
66 | 0.8 | Cc1nc(N(C)C(=O)Cc2ccc(-c3ccccn3)cc2)sc1S(N)(=O)=O [PCM-0215334]
67 | 63.4 | CNC(=O)c1ccccc1Nc1cc(Nc2ccc(N3CCOCC3)cc2OC)ncc1C(F)(F)F [PCM-0215412]
68 | 81.4 | COCCNCc1ccc(-c2cc3nccc(Oc4ccc(NC(=O)C5(C(=O)Nc6ccc(F)cc6)CC5)cc4F)c3s2)nc1 [PCM-0215838]
69 | -3.4 | Cn1cc(-c2ccc3nnc(Sc4ccc5ncccc5c4)n3n2)cn1 [PCM-0094898]
70 | 31.9 | COc1cc2c(cc1Cc1cccc(Cl)c1F)c(=O)c(C(=O)O)cn2[C@H](CO)C(C)C [PCM-0095274]
71 | -6.2 | CCOc1cc(N2CCC(O)CC2)ccc1Nc1ncc2c(n1)N(C)c1ccccc1C(=O)N2C [PCM-0095769]
72 | -11.7 | O=C(c1ccccc1)c1ccc2n1CCC2C(=O)O (centres unmarked) [PCM-0065461]
73 | 0 | O=c1c2ccccc2nc(/C=C/c2cccnc2)n1Cc1ccccc1 [PCM-0102024]
74 | 60 | O=C(NCCCNc1nc(Nc2cccc(NC(=O)N3CCCC3)c2)ncc1I)c1cccs1 [PCM-0095061]
75 | -7.8 | CCN(CC)CCOC(=O)C(c1ccccc1)c1ccccc1 [PCM-0085916]
76 | 31.7 | O=C(Nc1nc2cccc(-c3ccc(CN4CCS(=O)(=O)CC4)cc3)n2n1)C1CC1 [PCM-0215361]
77 | 0.8 | O=C(O)c1ccc(CN2CCC(CN[C@@H]3C[C@H]3c3ccccc3)CC2)cc1 [PCM-0215597]
